Laboratory results published in paper PMC4728608, “A Cell-Penetrating Peptide with a Guanidinylethyl Amine Structure Directed to Gene Delivery” (Scientific Reports, 2016).
Like-named read-outs stand apart in the source and are kept apart here.

Assays:
[1] = cited from earlier work
Source text: The unnatural amino acid described herein was a lysine (Lys) derivative with a guanidinylethyl (GEt) group in the side chain amine [Lys(GEt)] (Fig. 1).

[2] = Potentiometric titration of model compounds; details: for protonation degree α at pH 5.5 / protonation degree α at pH 7.4: 100 mM amine and/or guanidine in 100 mM HCl titrated with 100 mM NaOH
Procedure: 1-Ethylamino-2-guanidinylethane hydrochloride, a model compound for Lys(GEt), was synthesized according to Supplementary Scheme S3 in order to clarify the protonation degree of the GEt amine structure within a range from pH 3 to pH 13. […] The monoprotonate state was a major form of the AEt amine structure at neutral pH. […] The GEt amine structure took the diprotonated form even at neutral pH, as expected.
N-Ethylethylenediamine hydrochloride (80.5 mg, 0.5 mmol) and 1-ethylamino-2-guanidinylethane hydrochloride (101.5 mg, 0.5 mmol) were separately dissolved in 100 mM HCl (10 mL) to obtain a solution with 100 mM amine and/or guanidine, and then titrated with 100 mM NaOH at 20 °C. Potentiometric titration was performed with a pH meter D-52 (Horiba, Kyoto, Japan). In this experiment, the titrant was added in quantities of 100 μL after the pH values were stabilized.

[3] = potentiometric titration, 20 °C
[4] = potentiometric titration, 100 mM in 100 mM HCl titrated with 100 mM NaOH, 20 °C

SMILES: NCCNCCN [diethylenetriamine]
- pKa of protonated secondary amine [1]: 3.9

SMILES: CCNCCNC(=N)N.Cl [model compound for Lys(GEt), 1-Ethylamino-2-guanidinylethane hydrochloride]
- pKa1 [2]: 8.8
- pKa2 [2]: 12.0
- protonation degree α at pH 5.5 [2, 3]: 0.99
- protonation degree α at pH 7.4 [2, 3]: 0.96

SMILES: NCCCC[C@H](N)C(=O)O [Lys, lysine]
- pKa of protonated side chain (guanidine of Arg, primary amine of Lys) [1]: 10.2

SMILES: CCNCCN.Cl [N-Ethylethylenediamine hydrochloride]
- protonation degree α at pH 5.5 [2, 3]: 0.97
- protonation degree α at pH 7.4 [2, 3]: 0.66
- pKa1 [2, 4]: 7.1
- pKa2 [2, 4]: 10.3
